# Results published in patent US12624018B1, “Inhibitors of RIPK2 and medical uses thereof” (Odyssey Therapeutics, Inc., priority 2022, dated 2026).
# Target: T1, RIPK2 enzyme (Homo sapiens, UniProt O43353)
# T1 construct: purchased Carna 09-128
# Test: RIPK2 inhibition (ADP-Glo Kinase Assay)
# Format: biochemical
# Details: RIPK2 5 nM, ATP 150 μM, MBP substrate, read-out: RIPK2 IC50
# Procedure: RIPK2 inhibition was measured as follows:
# The V9102 ADP-Glo Kinase Assay (including ultrapure ATP, 10 mM) was purchased from Promega. Native swine MBP was used as the substrate for the reaction and was purchased from SignalChem Biotech (catalogue number M42-51N). Assay buffer used for the assay consisted of the following components: MgCl2 (final concentration of 10 mM), Brij-35 (0.01%), DTT (final concentration of 2 mM), BSA (0.05%), EGTA (final concentration of 1 mM), and HEPE (pH 7.5 at final concentration of 50 mM).
# Method: In a 384 well plate, 10 nL of test compound was dispensed using Echo550 and mixed with RIPK2 enzyme (final concentration of 5 nM) in assay buffer for 30 minutes at room temperature. […] Then ADP-Glo reagent was added and incubated for 60 min at room temperature. Last, Kinase Detection Reagent was added to the mixture and incubated for 60 min. The resulting luminescent signal was measured with an Envision reader to determine the amount of ADP produced. All plates contained vehicle controls (10 nL DMSO only) as a reference for the high control (0% kinase inhibition), and wells with no RIPK2 enzyme as reference for low control (100% kinase inhibition). Data were analyzed to determine the percent inhibition of ADP production in the presence of test compound using both low and high controls.
# T1 sequence (O43353 1-299 limits assumed): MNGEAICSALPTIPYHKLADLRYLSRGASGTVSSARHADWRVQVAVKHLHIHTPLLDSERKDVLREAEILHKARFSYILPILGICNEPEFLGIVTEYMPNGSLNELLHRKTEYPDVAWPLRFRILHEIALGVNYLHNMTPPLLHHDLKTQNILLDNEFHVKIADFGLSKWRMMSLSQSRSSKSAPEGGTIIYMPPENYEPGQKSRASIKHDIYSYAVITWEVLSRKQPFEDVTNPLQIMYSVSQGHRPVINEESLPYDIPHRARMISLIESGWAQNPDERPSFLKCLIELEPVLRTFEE
row,IC50 [nM],SMILES
1,< 2.5,"Cc1cc(CC(=O)Nc2cnn(C(C)(C)C)c2)ccc1Oc1ccnc2ccc(OC3CCCNC3=O)cc12 (stereo not shown) [Compound 308, N-(1-(tert-butyl)-1H-pyrazol-4-yl)-2-(3-methyl-4-((6-((2-oxopiperidin-3-yl)oxy)quinolin-4-yl)oxy)phenyl) acetamide]"
2,< 2.5,"Cc1c(Oc2ccnc3ccc(C(=O)N4C[C@@H](C)N[C@@H](C)C4)cc23)ccc(CC(=O)Nc2cnn(C(C)(C)C)c2)c1F [Compound 385, N-(1-(tert-butyl)-1H-pyrazol-4-yl)-2-(4-((6-((3R,5S)-3,5-dimethyl-piperazine-1-carbonyl)quinolin-4-yl)oxy)-2-fluoro-3-methylphenyl) acetamide]"
3,< 2.5,"Cc1cc(CC(=O)Nc2cnn(C(C)(C)C)c2)c(F)cc1Oc1ccnc2ccc(C(=O)N3CCC(O)CC3)cc12 [Compound 380, N-(1-(tert-butyl)-1H-pyrazol-4-yl)-2-(2-fluoro-4-((6-(4-hydroxy-piperidine-1-carbonyl)quinolin-4-yl)oxy)-5-methyl-phenyl) acetamide]"
4,< 2.5,"CNC(=O)c1cc2c(Oc3cc(F)c(CC(=O)Nc4cnn(C(C)(C)C)c4)cc3C)ccnc2cc1F [Compound 435, 4-(4-(2-((1-(tert-butyl)-1H-pyrazol-4-yl)amino)-2-oxoethyl)-5-fluoro-2-methylphenoxy)-7-fluoro-N-methylquinoline-6-carboxamide]"
5,< 2.5,"Cc1c(Oc2ccnc3ccc(C(=O)N4CCC(N)C4)cc23)ccc(CC(=O)Nc2cnn(C(C)(C)C)c2)c1F (single isomer, unassigned) [Compound 354, 2-(4-((6-(3-amino-pyrrolidine-1-carbonyl)quinolin-4-yl)oxy)-2-fluoro-3-methyl-phenyl)-N-(1-(tert-butyl)-1H-pyrazol-4-yl)acetamide]"
6,< 2.5,"Cc1cc(CC(=O)Nc2cnn(C(C)(C)C)c2)c(F)cc1Oc1ccnc2ccc(-c3nnccc3C)cc12 [Compound 460, N-(1-(tert-butyl)-1H-pyrazol-4-yl)-2-(2-fluoro-5-methyl-4-((6-(4-methylpyridazin-3-yl)quinolin-4-yl)oxy)phenyl)acetamide]"
7,< 2.5,"Cc1cc(CC(=O)Nc2cnn(C(C)(C)C)c2)c(F)cc1Oc1ccnc2ccc(C(=O)NC3CC3)cc12 [Compound 457, 4-(4-(2-((1-(tert-butyl)-1H-pyrazol-4-yl)amino)-2-oxoethyl)-5-fluoro-2-methylphenoxy)-N-cyclopropylquinoline-6-carboxamide]"
8,< 2.5,"Cc1cc(CC(=O)Nc2cnn(C(C)(C)C)c2)c(F)cc1Oc1ccnc2ccc(C(=O)N3C[C@H]4C[C@@H]3CO4)cc12 [Compound 452, 2-(4-((6-((1R,4R)-2-oxa-5-azabicyclo[2.2.1]heptane-5-carbonyl)quinolin-4-yl)oxy)-2-fluoro-5-methylphenyl)-N-(1-(tert-butyl)-1H-pyrazol-4-yl)acetamide]"

# The remaining lines, values behind:
row,SMILES,IC50 [nM]
1,"CN1CCC(Oc2ccc3nccc(Oc4ccc(CC(=O)Nc5cnn(C(C)(C)C)c5)c(F)c4F)c3c2)CC1 [Compound 166, N-(1-(tert-butyl)-1H-pyrazol-4-yl)-2-(2,3-difluoro-4-((6-((1-methyl-piperidin-4-yl)oxy)quinolin-4-yl)oxy)phenyl) acetamide]",< 2.5
2,"Cc1c(Oc2ccnc3ccc(S(=O)(=O)N(C)C)cc23)ccc(CC(=O)Nc2cnn(C(C)(C)C)c2)c1F [Compound 269, N-(1-(tert-butyl)-1H-pyrazol-4-yl)-2-(4-((6-(N,N-dimethylsulfamoyl)quinolin-4-yl)oxy)-2-fluoro-3-methylphenyl)acetamide]",< 2.5
3,"Cc1c(Oc2ccnc3ccc(S(=O)(=O)C4CC(O)C4)cc23)ccc(CC(=O)Nc2cnn(C(C)(C)C)c2)c1F (single isomer, unassigned) [Compound 286, N-(1-(tert-butyl)-1H-pyrazol-4-yl)-2-(2-fluoro-4-((6-((-3-hydroxycyclobutyl)sulfonyl)quinolin-4-yl)oxy)-3-methylphenyl)acetamide]",< 2.5
4,"COCCN(C)S(=O)(=O)c1ccc2nccc(Oc3ccc(CC(=O)Nc4cnn(C(C)(C)C)c4)cc3C)c2c1 [Compound 263, N-(1-(tert-butyl)-1H-pyrazol-4-yl)-2-(4-((6-(N-(2-methoxyethyl)-N-methylsulfamoyl)quinolin-4-yl)oxy)-3-methylphenyl)acetamide]",< 2.5
5,"Cc1cc(CC(=O)Nc2cnn(C(C)(C)C)c2)ccc1Oc1ccnc2ccc(S(=O)(=O)C3COC3)cc12 [Compound 101, N-(1-(tert-butyl)-1H-pyrazol-4-yl)-2-(3-methyl-4-((6-(oxetan-3-ylsulfonyl)quinolin-4-yl)oxy)phenyl)acetamide]",< 2.5
6,"CC(C)(C)n1cc(NC(=O)Cc2ccc(Oc3ccnc4ccc(S(C)(=N)=O)cc34)c(Cl)c2)cn1 (stereo not shown) [Compound 90, N-(1-(tert-butyl)-1H-pyrazol-4-yl)-2-(3-chloro-4-((6-(S-methylsulfonimidoyl)quinolin-4-yl)oxy)phenyl)acetamide]",2.9
7,"Cc1cc(CC(=O)Nc2cc(C(C)(C)C)cnn2)ccc1Oc1ncnc2ccc(F)cc12 [Compound 55, N-(5-(tert-butyl)pyridazin-3-yl)-2-(4-((6-fluoroquinazolin-4-yl)oxy)-3-methylphenyl) acetamide]",24.5
8,"Cc1c(Oc2ccnc3ccc(P(C)(C)=O)cc23)ccc(CC(=O)Nc2cnn(C(C)(C)C)c2)c1F [Compound 300, N-(1-(tert-butyl)-1H-pyrazol-4-yl)-2-(4-((6-(dimethylphosphoryl)quinolin-4-yl)oxy)-2-fluoro-3-methylphenyl) acetamide]",< 2.5
9,"Cc1cc(CC(=O)Nc2cnn(C(C)(C)C)c2)ccc1Oc1ccnc2ccc(S(=O)(=O)N3CCOCC3)cc12 [Compound 261, N-(1-(tert-butyl)-1H-pyrazol-4-yl)-2-(3-methyl-4-((6-(morpholinosulfonyl)quinolin-4-yl)oxy)phenyl)acetamide]",< 2.5
10,"CN1CCC(COc2ccc3ncnc(Oc4cnc(CC(=O)Nc5cnn(C(C)(C)C)c5)c(F)c4)c3c2)CC1 [Compound 61, N-(1-(tert-butyl)-1H-pyrazol-4-yl)-2-(3-fluoro-5-((6-((1-methylpiperidin-4-yl)methoxy)quinazolin-4-yl)oxy)pyridin-2-yl)acetamide]",13.3
11,"Cc1cc(CC(=O)Nc2cnn(C(C)(C)C)c2)ccc1Oc1ccnc2ccc(S(C)(=N)=O)cc12 (stereo not shown) [Compound 76, N-(1-(tert-butyl)-1H-pyrazol-4-yl)-2-(3-methyl-4-((6-(S-methylsulfonimidoyl)quinolin-4-yl)oxy)phenyl) acetamide]",< 2.5
12,"CC(C)(C)c1cc(NC(=O)Cc2ncc(Oc3ccnc4ccc(S(C)(=O)=O)cc34)cc2F)n[nH]1 [Compound 42, N-(5-(tert-butyl)-1H-pyrazol-3-yl)-2-(3-fluoro-5-((6-(methylsulfonyl)quinolin-4-yl)oxy)pyridin-2-yl)acetamide]",5.5
13,"Cc1cc(CC(=O)Nc2cnn(C(C)(C)C)c2)ccc1Oc1ccnc2ccc(S(=O)(=O)C3CC(O)C3)cc12 (stereo not shown) [Compound 281, N-(1-(tert-butyl)-1H-pyrazol-4-yl)-2-(4-((6-((-3-hydroxycyclobutyl)sulfonyl)quinolin-4-yl)oxy)-3-methylphenyl)acetamide]",< 2.5
14,"Cc1c(Oc2ccnc3ccc(C4CCNC4=O)cc23)ccc(CC(=O)Nc2cnn(C(C)(C)C)c2)c1F (single isomer, unassigned) [Compound 304, N-(1-(tert-butyl)-1H-pyrazol-4-yl)-2-(2-fluoro-3-methyl-4-((6-(2-oxopyrrolidin-3-yl)quinolin-4-yl)oxy)phenyl)acetamide]",< 2.5
